{"source": "patent US7863239B2", "about": "“Binding compounds, immunogenic compounds and peptidomimetics” (Pepscan Systems B.V., priority 2005, dated 2011)", "key": {"FSH": {"test_system": "FSH", "experiment": "Vaccination of rats with FSH-derived peptides, antisera analyzed in FSH-binding ELISA", "settings": "rat, in vivo", "description": "Peptides were synthesized by solid-phase peptide synthesis using a 4-(2′,4′-dimethoxyphenyl-Fmoc-aminomethyl)-phenoxy (RinkAmide) resin (BACHEM, Germany) on a Syro-synthesizer (MultiSynTech, Germany). All amino acids were purchased and used as N-alpha-(Fmoc) protected with side-chain functionalities protected as N-t-Boc (KW), O-t-Bu (DESTY), N-Trt (HNQ), S-Trt (C), or N-Pbf (R) groups. A coupling protocol using a 6.5-fold excess of HBTU/HOBt/amino acid/DIPEA (1:1:1:2) in NMP with a 30 min. activation time using double couplings was employed. […] Subsequently, female Wistar rats were immunized on day 0 with 400 uL of a ˜2.5 mg/mL of the peptide or peptide-T-construct in PBS/CFA 1:1 (v/v) (PBS=Phosphate-Buffered Saline, CFA=Complete Freund's Adjuvance), followed by a booster (same quantity and concentration) at 4 weeks. Subsequently, the anti-peptide titers were determined after 6 weeks to check for immune response and finally the rats were bleeded after 8 weeks and the antisera collected. Antisera were analyzed in an FSH-binding ELISA (Greiner, PS; GDA-coating with 1 μg/mL of FSH (Biotrend)) using 2,2′-azine-di(ethylbenzthiazoline sulfonate) (ABTS) in combination with a peroxidase-labeled Goat-anti-rat serum as second antibody. […]"}, "anti-CCR5 antibody 2D7": {"test_system": "anti-CCR5 antibody 2D7", "experiment": "Screening of peptide microarrays with anti-CCR5 antibody 2D7", "type": "binding", "settings": "absorbance at 405 nm measured using a CCD-camera; for 2D7 (0.1 μg/ml): mAb 2D7 at 0.1 μg/ml on peptide microarray; for 2D7 (1 μg/ml): mAb 2D7 at 1 μg/ml on peptide microarray; for 2D7 (10 μg/ml): mAb 2D7 at 10 μg/ml on peptide microarray", "description": "Grafting of the polypropylene support with polyacrylic acid was performed by irradiating the support in a 6% acrylic acid solution containing CUS04 using gamma radiation at a dose of 12 kGy. The grafted solid support containing carboxylic acid groups was subsequently reacted with t-butyloxycarbonyl-hexamethylenediamine (Boc-HMDA) using dicyclohexylcarbodiimide (DCC) with N-hydroxybenzotriazole (HOBt) and subsequent cleavage of the Boc-groups using trifluoroacetic acid (TFA). The peptides were synthesized using standard Fmoc-chemistry and, after acylation, deprotected by reaction with TFA (15 ml/g resin) containing 13.3% (w) phenol, 5% (v) thioanisole, 2.5% (v) 1,2-ethanedithiol, and 5% (v) milliQ-H2O for 2-4 hrs at RT. After washing 3× with H2O, the peptide microarrays were treated with excess of a 1.0 mM solution of either mP2 or T3 in 20 mM amm. bicarbonate (pH 7.8)/acetonitril (1:1 v/v) for 30-60 min. at room temperature, followed by 3× washing with 50% ACN/H2O. Then, the microarrays were washed with excess of millipore H2O and sonicated in disrupt-buffer (1% SDS/0.1% β-mercaptoethanol (BME) in phosphate buffered saline (PBS), pH 7.2) at 70° C. for 30 min. followed by sonication in millipore H2O for another 45 min. Synthese Van Scaffolds: The scaffolds are commercially available by Aldrich. Screening of Micro-Arrays with Antibodies Microarrays were pretreated with PBS for 30 min. followed by precoating with incubation buffer (PBS containing 5% ovalbumin, 5% horse serum and 1% Tween-80) for 1 hour. Then, the microarrays were incubated with mAb (typically 1/1000, diluted in incubation buffer) overnight at 4° C. After washing (3×10 min.) with PBS/Tween-80 (0.05%), the peptides were incubated with peroxidase labeled rabbit anti-mouse antibody for 1 hr at 25° C. (rampo, 1/1000; Dako, Glostrup, Denmark) and subsequently, after washing again (3×10 min.) with PBS/Tween-80 (0.05%), incubated with the peroxidase substrate 2,2′-azino-di-3-ethylbenzthiazoline sulfonate (ABTS; 50 mg in 100 ml 0.1M citric acid-sodium phosphate (McIlvaine) buffer (pH 4.0) containing 20 ul 30% H2O2). After 1 h the absorbance (at 405 nm) was measured using a CCD-camera (XC-77RR, Sony, Japan). Bound mAb was removed by sonication in disrupt-buffer as described above. The micro-arrays were re-used for screening approximately 10-15 times. CCR5 CCR5 is a […] co-receptor that is used by HIV for cellular entry. Antibodies specifically directed against CCR5 would therefore be suitable for counteracting cellular entry by HIV. However, immunization with whole CCR5 is problematic since CCR5 is a transmembrane protein. In order to be capable of eliciting CCR5-specific antibodies, immunogenic compounds based on CCR5 are therefore desired. In order to design suitable test compounds, 4 CCR5 sequences were taken into account: one N-terminus domain (Nt) and three extracellular loop domains extended with about 1-6 adjacent amino acid residues of the transmembrane domains (N-terminally as well as C-terminally). These extracellular loop domains are called e1, e2 and e3. The primary sequences of the considered domains are as follows (starting N-terminally):\nIn the first series of peptides (first row of the above Table), the C-terminal amino acids K, I, N, V, K, Q, I, and A of the Nt sequence were selected. Subsequently, N-terminal flanking sequences with a length of 21 amino acid residues were selected. […] Subsequently, peptides were produced containing one of these flanking sequences. Likewise, in the second series of peptides (second row of the above Table), the C-terminal amino acids P, C, Q, K, I, N, V and K of the Nt sequence were selected. Subsequently, N-terminal flanking sequences with a length of 18 amino acid residues were selected. […] Subsequently, peptides were produced containing one of these flanking sequences. […]"}}, "note": "Entries after “also recorded” stand apart in the source; their conditions may differ. *1 amine or outer side, *2 acyl side, *3 side chain or, on linkers, in order; H or OH if unused. Bridges are numbered along the chain shown (N, C = ends). Where no end group is shown, it is not given here. T4 = 1,2,4,5-tetrabromodurene scaffold; mXylylene = c1cc(C[*:1])cc(C[*:2])c1", "data": [{"substance": "*KIQKTATFKELVYETCRVPGAAHHADSLCTYPVATQAHAGK# (SEQ ID NO: 120) T4 (KIQKTATFKELVYETCRVPGAAHHADSLCTYPVATQAHAGK-NH2; linker 16-29 via T4 (inferred)) [No. 9 (Table 4B), FSH-derived CLIPS peptide]", "values": [{"measurement": "immune response against native FSH in rats (in words)", "setting": "FSH", "value": "Good results"}]}, {"substance": "*TFKELVYETCRVPGAAHHADSLCTYPVATQAH# (SEQ ID NO: 119) + m-T2 (TFKELVYETCRVPGAAHHADSLCTYPVATQAH-NH2; linker 10-23 via mXylylene (inferred)) [No. 4 (Table 4B), FSH-derived CLIPS peptide]", "values": [{"measurement": "immune response against native FSH in rats (in words)", "setting": "FSH; listed as TFKELVYETCRVPGAAHHADSLCTYPVATQAH cyclized onto m-T2", "value": "production of antibodies that are reactive with native FSH; also recorded: very high antibody titre"}]}, {"substance": "CAQWDFGNCQKEGLHYTC (SEQ ID NO: 109) (not fully specified; bound to P2 or T3 scaffold) [compound 1158]", "values": [{"measurement": "2D7 (0.1 μg/ml)", "setting": "anti-CCR5 antibody 2D7", "value": 132}, {"measurement": "2D7 (1 μg/ml)", "setting": "anti-CCR5 antibody 2D7", "value": 416}, {"measurement": "2D7 (10 μg/ml)", "setting": "anti-CCR5 antibody 2D7", "value": 2377}]}, {"substance": "CFGNTMGGGRSQKEGLHYTC (SEQ ID NO: 108) (not fully specified; bound to P2 or T3 scaffold) [compound 719]", "values": [{"measurement": "2D7 (0.1 μg/ml)", "setting": "anti-CCR5 antibody 2D7", "value": 113}, {"measurement": "2D7 (1 μg/ml)", "setting": "anti-CCR5 antibody 2D7", "value": 678}, {"measurement": "2D7 (10 μg/ml)", "setting": "anti-CCR5 antibody 2D7", "value": 2819}]}, {"substance": "CNTMGGGRSQKEGLHYTC (SEQ ID NO: 106) (not fully specified; bound to P2 or T3 scaffold) [compound 702]", "values": [{"measurement": "2D7 (0.1 μg/ml)", "setting": "anti-CCR5 antibody 2D7", "value": 68}, {"measurement": "2D7 (1 μg/ml)", "setting": "anti-CCR5 antibody 2D7", "value": 1580}, {"measurement": "2D7 (10 μg/ml)", "setting": "anti-CCR5 antibody 2D7", "value": 2787}]}, {"substance": "CQKEGLHYC (SEQ ID NO: 102) (not fully specified; bound to P2 or T3 scaffold) [compound 443]", "values": [{"measurement": "2D7 (0.1 μg/ml)", "setting": "anti-CCR5 antibody 2D7", "value": 148}, {"measurement": "2D7 (1 μg/ml)", "setting": "anti-CCR5 antibody 2D7", "value": 2636}, {"measurement": "2D7 (10 μg/ml)", "setting": "anti-CCR5 antibody 2D7", "value": 3090}]}, {"substance": "CQKEGLHYTC (SEQ ID NO: 101) (not fully specified; bound to P2 or T3 scaffold) [compound 447]", "values": [{"measurement": "2D7 (0.1 μg/ml)", "setting": "anti-CCR5 antibody 2D7", "value": 261}, {"measurement": "2D7 (1 μg/ml)", "setting": "anti-CCR5 antibody 2D7", "value": 2706}, {"measurement": "2D7 (10 μg/ml)", "setting": "anti-CCR5 antibody 2D7", "value": 2943}]}, {"substance": "CQWDFGNTCQKEGLHYTC (SEQ ID NO: 107) (not fully specified; bound to P2 or T3 scaffold) [compound 1159]", "values": [{"measurement": "2D7 (0.1 μg/ml)", "setting": "anti-CCR5 antibody 2D7", "value": 213}, {"measurement": "2D7 (1 μg/ml)", "setting": "anti-CCR5 antibody 2D7", "value": 1153}, {"measurement": "2D7 (10 μg/ml)", "setting": "anti-CCR5 antibody 2D7", "value": 2636}]}, {"substance": "CRSQKEGLHYTC (SEQ ID NO: 105) [compound 450]", "values": [{"measurement": "2D7 (0.1 μg/ml)", "setting": "anti-CCR5 antibody 2D7", "value": 107}, {"measurement": "2D7 (1 μg/ml)", "setting": "anti-CCR5 antibody 2D7", "value": 2364}, {"measurement": "2D7 (10 μg/ml)", "setting": "anti-CCR5 antibody 2D7", "value": 2852}]}, {"substance": "CSQKEGLHYTC (SEQ ID NO: 103) (not fully specified; bound to P2 or T3 scaffold) [compound 449]", "values": [{"measurement": "2D7 (0.1 μg/ml)", "setting": "anti-CCR5 antibody 2D7", "value": 99}, {"measurement": "2D7 (1 μg/ml)", "setting": "anti-CCR5 antibody 2D7", "value": 2606}, {"measurement": "2D7 (10 μg/ml)", "setting": "anti-CCR5 antibody 2D7", "value": 2889}]}, {"substance": "CWDFGNTMCQKEGLHYTC (SEQ ID NO: 104) (not fully specified; bound to P2 or T3 scaffold) [compound 1160]", "values": [{"measurement": "2D7 (0.1 μg/ml)", "setting": "anti-CCR5 antibody 2D7", "value": 315}, {"measurement": "2D7 (1 μg/ml)", "setting": "anti-CCR5 antibody 2D7", "value": 2469}, {"measurement": "2D7 (10 μg/ml)", "setting": "anti-CCR5 antibody 2D7", "value": 2765}]}]}
